# According to ChEMBL document CHEMBL1201862, “PubChem BioAssay data set” (2004):
# Calls of active or inactive are those of the source.
# Key:
# [1] = cytotoxicity in HPDE-C7 cells, cell-based, fluorescence, HTS (AID 430); type: functional; details: Homo sapiens
# [2] = cytotoxicity in KRAS-transformed pancreatic duct cells, primary screen, cell-based, fluorescence, HTS (AID 431); type: functional; details: Homo sapiens;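 note: cell line used: HPDE-C7K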
# cells [3] = assay: cells
# [4] = cytotoxicity toward NIH3T3 fibroblasts, dose response, counter-screen, cell-based, ATP luminescence, mouse fibroblasts (AID 2010); type: functional; details: NIH3T3;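 note: cells exposed to compound for about 90 hours before reading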
# [5] = inhibitors of intracellular T. cruzi replication, confirmation, NIH3T3 host cells, beta-gal luminescence (AID 2044); type: functional, cell-based;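 note: intracellular parasites grown in NIH/3T3 mouse fibroblasts as host cells; luminescent beta-galactosidase reporter signal from transgenic T. cruzi replicating inside host cells; inhibitors lower the luminescence signal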
# [6] = SNU-C1 cell viability reduction, dose response, CellTiter-Glo luminescence (AID 1117323); type: functional, cell-based
# [7] = RKO cell viability reduction, dose response, CellTiter-Glo luminescence (AID 1117322); type: functional
# [8] = cytotoxicity toward HT-29 cells – cell-based, CellTiter-Glo luminescence, IC50, dose response (AID 1117330); type: functional
# [9] = cytotoxicity toward HCT116 cells – cell-based, CellTiter-Glo luminescence, IC50, dose response (AID 1117332); type: functional; details: HCT-116
# [10] = CellTiter-Glo luminescent dose response of DLD-1 viability loss (AID 1117352); type: functional
# [11] = Concentration-dependent survival of SW480 colon cancer line, luminescence detection with CellTiter-Glo, half-maximal inhibitory concentration (AID 1117338); type: functional
# [12] = HCT116 cell viability decrease, GSK3B pretreatment – CellTiter-Glo, IC50, dose response (AID 1117339); type: functional; details: HCT-116
# [13] = cytotoxicity toward Colo320 cells – cell-based, CellTiter-Glo luminescence, IC50, dose response (AID 1117334); type: functional; details: COLO 320
# [14] = P. falciparum Dd2 growth inhibitors, dose response, SYBR Green, cherry-picked samples (AID 1159567); type: functional, cell-based
# [15] = off-target signal loss in HeLa-CEM21 co-culture – HeLa F-luc CTL cells, cherry-picked, counter-screen for HIV-1 Env fusion inhibitor project, dose response (AID 652040); type: functional, cell-based;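 note: potency for signal decrease marking cytotoxic or nonspecific inhibition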
# [16] = CEM21 lymphoblast cell cytotoxicity, dose response, cytotoxicity control for viral fusion inhibitor project, CellTiter-Glo luminescence, cherry-picked (AID 652042); type: functional, cell-based;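 note: potency for signal decrease meaning cytotoxicity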
# [17] = inhibitors of SNCA 5'UTR-driven reporter translation, confirmation, H4 neuroglioma cells, luminescence (AID 1988); type: functional, cell-based
# [18] = ZM109 Env clade C HIV-1 fusion inhibitors, dose response, HeLa effector, CEM target cells, luciferase, cherry-pick (AID 652058); type: functional, cell-based
# cells [19] = type: functional, cell-based
# cells [20] = type: functional, cell-based; remark: listed apart in the source
# [21] = inhibitors of HIV Env-driven cell fusion, dose response, cherry-pick (AID 652057); type: functional, cell-based
# [22] = target: T1, Heat shock factor protein 1 (Mus musculus, UniProt P38532); assay: inhibition of MG132-induced HSE-luciferase signal, confirmation, cell-based, NIH3T3, luminescence, dose retest (AID 2382); type: functional;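 note: NIH3T3 fibroblasts with HSF1-driven luciferase reporter stressed by proteasome inhibitor MG132; luminescence from HSF1-driven luciferase expression after 8 hours of MG132 stress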
# T1 sequence (P38532 whole entry): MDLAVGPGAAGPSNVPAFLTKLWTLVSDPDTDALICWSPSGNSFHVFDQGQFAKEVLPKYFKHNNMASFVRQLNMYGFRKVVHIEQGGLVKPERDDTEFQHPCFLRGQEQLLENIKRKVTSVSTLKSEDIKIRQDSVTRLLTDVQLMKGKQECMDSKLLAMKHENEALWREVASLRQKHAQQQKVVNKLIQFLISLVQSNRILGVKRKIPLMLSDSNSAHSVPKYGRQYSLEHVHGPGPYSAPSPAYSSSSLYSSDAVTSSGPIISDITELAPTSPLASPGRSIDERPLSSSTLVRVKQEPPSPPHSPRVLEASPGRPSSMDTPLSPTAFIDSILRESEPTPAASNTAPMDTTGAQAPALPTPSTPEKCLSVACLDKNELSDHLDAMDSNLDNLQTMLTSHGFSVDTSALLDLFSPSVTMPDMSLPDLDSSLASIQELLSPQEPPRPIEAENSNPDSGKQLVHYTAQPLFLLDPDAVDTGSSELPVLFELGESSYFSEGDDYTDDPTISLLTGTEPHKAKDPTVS
# [23] = inhibitors of clade B AD8 Env fusion, dose response, cell-based, cherry-pick (AID 652062); type: functional;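 note: luciferase signal from cell-cell fusion driven by HIV-1 clade B AD8 Env; potency is for inhibitors of fusion seen as a drop in luminescence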
# [24] = Luminescence Cell-Based Dose Response HTS to Identify Inhibitors of 5'UTR Stem-Loop Driven Prion Protein mRNA Translation in H4 Neuroglioblastoma Cells. [Related pubchem assays: 1827 (Project Summary), 1813 (Primary HTS)]; type: functional
# [25] = inhibitors of firefly luciferase expression or activity, dose response, H4 neuroglioma cells, luminescence (AID 1990); type: functional, cell-based
# [26] = Luminescence Cell-Based Dose Confirmation HTS to Identify Activators of 5'UTR Stem-Loop Driven Alpha-Synuclein mRNA Translation in H4 Neuroglioblastoma Cells. [Related pubchem assays: 1829 (Project Summary), 1814 (Primary HTS)]; type: functional
# H4 = assay: Luminescence Cell-Based Dose Response HTS to Identify Activators of 5'UTR Stem-Loop Driven Prion Protein mRNA Translation in H4 Neuroglioblastoma Cells. [Related pubchem assays: 1829 (Project Summary), 1814 (Primary HTS)]; type: functional; details: Homo sapiens
# [27] = Luminescence Cell-Based Dose Response HTS to Identify Activators of Luciferase Translation or Activity in H4 […] Cells. [Related pubchem assays: 1829 (Project Summary), 1814 (Primary HTS)]; type: functional
# [28] = Luminescence Cell-Based Dose Response to Identify Activators of 5'UTR Stem-Loop Driven Prion Protein mRNA Translation in H4-C Neuroglioblastoma Cells. [Related pubchem assays: 1829 (Project Summary), 1814 (Primary HTS)]; type: functional
# [29] = Luminescence Cell-Based Dose Response to Identify Activators of Luciferase Translation or Activity in H4-C Neuroglioblastoma Cells. [Related pubchem assays: 1829 (Project Summary), 1814 (Primary HTS)]; type: functional
# [30] = Luminescence Cell-Based Dose Confirmation to Identify Activators of 5'UTR Stem-Loop Driven Alpha-Synuclein mRNA Translation in H4 Neuroglioblastoma Cells. [Related pubchem assays: 1829 (Project Summary), 1814 (Primary HTS)]; type: functional
smiles,measurement,setting,value
CC1CN(c2oc(COc3ccc(Cl)cc3Cl)nc2C#N)CC(C)O1 (stereo unspecified),EC50,[1],> 20 µM (not active)
same,EC50,[2],> 20 µM (not active)
Cc1ccsc1C(=O)C1CCCN(Cc2cnn(C(C)C)c2)C1 (stereo unspecified),EC50,cells [3],0.01 µM (active)
same,EC50,[4],> 60 µM (inconclusive)
same,EC50,[5],< 0.1 µM (active)
CCCS(=O)(=O)N1CCC(C(=O)NCCc2ccccc2)CC1,EC50,[1],> 20 µM (not active)
same,EC50,[2],> 20 µM (not active)
CC1CCC(C(C)C)C(OC(=O)c2ccccc2O)C1 (stereo unspecified),IC50,[6],> 20 µM (inactive)
same,IC50,[7],> 20 µM (inactive)
same,IC50,[8],> 20 µM (inactive)
same,IC50,[9],> 20 µM (inactive)
same,IC50,[10],> 20 µM (inactive)
same,IC50,[11],> 20 µM (inactive)
same,IC50,[12],> 20 µM (inactive)
same,IC50,[13],> 20 µM (inactive)
COc1ccc2c3c(n(C)c2c1)[C@H](CO)N(Cc1ccccc1F)CC31CCN(CC2CC2)CC1,AC50,[14],3.46 µM (active)
COc1ccc2cc3c(N)nn(C(=O)Cc4c[nH]c5ccccc45)c3nc2c1,AC50,[15],0.512 µM (active)
same,AC50,[16],7.5 µM (active)
same,EC50,[17],11.5 µM (active)
same,AC50,[18],0.261 µM (active)
same,EC50,cells [19],> 350 µM (not active)
same,EC50,cells [20],> 350 µM (not active)
same,AC50,[21],0.352 µM (active)
same,EC50,[22],0.269 µM (active)
same,AC50,[23],0.563 µM (active)
same,EC50,[24],23 µM (active)
same,EC50,[25],< 0.1 µM (active)
COc1cccc(CC2(CO)CCCN(Cc3cn(C)c4ccccc34)C2)c1 (stereo unspecified),EC50,cells [3],0.051 µM (active)
same,EC50,[4],20 µM (active)
same,EC50,[5],< 0.1 µM (active)
COc1ccc(CN2CC3(CCN(C(=O)c4ccccc4)CC3)c3c([nH]c4cc(OC)ccc34)[C@@H]2CO)cc1,AC50,[14],3 µM (active)
CCC1Nc2cc(Cl)c(S(N)(=O)=O)cc2S(=O)(=O)N1 (stereo unspecified) [ETHIAZIDE],IC50,[6],> 20 µM (inactive)
same,IC50,[7],> 20 µM (inactive)
same,IC50,[8],> 20 µM (inactive)
same,IC50,[9],> 20 µM (inactive)
same,IC50,[10],> 20 µM (inactive)
same,IC50,[11],> 6.67 µM (inactive)
same,IC50,[12],> 20 µM (inactive)
same,IC50,[13],> 20 µM (inactive)
CN(C)CCN(C(=O)c1ccc2c(c1)OCCO2)c1nc2ccc(Cl)cc2s1,EC50,[26],> 120 µM (not active)
same,EC50,cells [3],0.088 µM (active)
same,EC50,[4],> 60 µM (not active)
same,EC50,H4,> 120 µM (not active)
same,EC50,[5],< 0.1 µM (active)
same,EC50,[27],15.6 µM (active)
CC(=N)/C(C#N)=C(/O)CSc1nc2cc(C)ccc2[nH]1,EC50,[26],1.68 µM (active)
same,EC50,[28],0.321 µM (active)
same,EC50,[29],0.296 µM (active)
same,EC50,[30],0.424 µM (active)
same,EC50,[27],< 0.1 µM (active)
Cc1ccc(-c2csc(NC(=O)C3=COCCO3)n2)cc1C,EC50,[4],> 60 µM (not active)
same,EC50,[28],2.75 µM (active)
same,EC50,[5],0.846 µM (active)
same,EC50,[29],0.301 µM (active)
same,EC50,[30],0.353 µM (active)
same,EC50,[27],< 0.1 µM (inconclusive)
CN(C)c1ccc(C(=C2C=CC(=[N+](C)C)C=C2)c2ccc(N(C)C)cc2)cc1 [GENTIAN VIOLET],IC50,[6],0.394 µM (active)
same,IC50,[7],0.994 µM (active)
same,IC50,[8],0.466 µM (active)
same,IC50,[9],0.514 µM (active)
same,IC50,[10],0.471 µM (active)
same,IC50,[11],0.528 µM (active)
same,IC50,[13],2.05 µM (active)
COc1ccc(N(Cc2cc3cc(OC)ccc3nc2O)S(C)(=O)=O)cc1,EC50,[1],> 20 µM (not active)
same,EC50,[2],> 20 µM (not active)
COc1ccc(C(=O)c2ccccc2O)c(O)c1 [DIOXYBENZONE],IC50,[7],> 20 µM (inactive)
same,IC50,[8],> 20 µM (inactive)
same,IC50,[9],> 20 µM (inactive)
same,IC50,[10],> 20 µM (inactive)
same,IC50,[11],> 20 µM (inactive)
same,IC50,[13],> 20 µM (inactive)
